# Reference: publication PMC10673563, “In Vitro and In Vivo Biological Evaluation of Indole-thiazolidine-2,4-dione Derivatives as Tyrosinase Inhibitors” (Molecules, 2023)
# Tests used:
# Mushroom tyrosinase = target: T1, Mushroom tyrosinase (Agaricus bisporus, UniProt C7FF04); assay: Tyrosinase inhibitory activity assay (L-DOPA, absorbance 475 nm); assay type: biochemical; conditions: for inhibition at 32 µM: initial concentration of 32 μM
# T1 construct: purchased Sigma-Aldrich (Shanghai, China)
# Method: The tyrosinase inhibitory activities of compounds 5a~5z were determined according to previous reports. In brief, 10 μL of compound was added into 140 μL of tyrosinase, incubated for 5 min at room temperature. Then, 50 μL of L-DOPA was added, followed by the measurement of absorbance change at 475 nm. The inhibition rate at different concentrations was calculated and compared to the blank control.
# [1] = tested on: melanogenesis in B16F10 cells; assay: Melanin content in B16F10 cells; assay type: cell-based; conditions: 16 and 32 μM; for melanogenesis in B16F10 cells: 48 h
# Method: B16F10 cell treatment was consistent with the above method. The harvested cells were suspended into NaOH (1 M, 200 μL). After boiling for 1 h, the mixture was measured to determine the absorbance change at wavelength of 405 nm.
# [2] = tested on: melanogenesis in zebrafish; assay: Melanin content in zebrafish (microscope, Image J); assay type: in vivo; conditions: for grayscale values of whole embryos / pigmentation of embryo (eyes, yolk sac, notum): compared to control embryo; for pigmentation of embryo (eyes, yolk sac, notum): embryo photos
# Method: The embryos treated with compound 5w or kojic acid were observed under a microscope and the melanin content was assayed using Image J software.
# [3] = tested on: tyrosinase activity in zebrafish; assay: Tyrosinase activity in zebrafish; assay type: in vivo; conditions: for tyrosinase activity in zebrafish: zebrafish embryos
# Method: The embryos treated with compound 5w or kojic acid were lysed in PBS, followed by centrifugation to obtain the supernatant. The appropriate amount of supernatant, equal L-DOPA (5 mg/mL), was added and the absorbance at 475 nm was determined.
# [4] = tested on: tyrosinase activity in B16F10 cells; assay: Tyrosinase activity in B16F10 cells; assay type: cell-based; conditions: 16 and 32 μM; for cellular tyrosinase activity: 48 h
# Method: The tyrosinase inhibitory activity of 5w in B16F10 cells was determined. B16F10 cells (1 × 10^5 cells/well) were seeded into the 6-well plate for 24 h and subsequently treated with compound 5w or kojic acid for another 48 h. Then, the harvested cells were suspended into the appropriate amount of Triton X-100 (1%) and frozen for 1 h at −80 °C. After it had thawed, the mixture was centrifuged to collect the supernatant. Then, its protein concentration was determined using a BCA Kit. After 20 μL of L-DOPA (10 mM) was added into 80 μL of protein solution, the absorbance change at 475 nm was measured.
# B16F10 cells = assay: Cell cytotoxicity (MTT); assay type: cell-based; conditions: 4~32 μM, 48 h
# Method: The effects of compound 5w and kojic acid on the cells’ viability were determined using the MTT method. B16F10 cells (5000 cells/well) were seeded into the 96-well plate for 24 h, followed by the treatment of compound 5w or kojic acid (4~32 μM) for another 48 h. Then, MTT solution (0.5 mg/mL) was added and incubated for 4 h. DMSO (100 μL) was used to dissolve the violet precipitates, and then the mixture was measured for its absorbance at 570 nm.
# tyrosinase [5] = target: T2, tyrosinase (Agaricus bisporus, UniProt C7FF04); assay: CD spectra, secondary structure content of tyrosinase; set-up: species or system mushroom
# T2 construct: purchased Sigma-Aldrich (Shanghai, China)
# Method: CD spectra, one widely used method for determining the secondary structure of protein, were applied to assay the effects of 5w on the conformation change of tyrosinase. The CD spectra of the tyrosinase–compound 5w mixture were monitored and two negative characteristic bands around 210 and 222 nm appeared (Figure 4), which represented typical features of α-helixes.
# The CD spectra of tyrosinase (33 μM) and tyrosinase–compound 5w mixture were measured at room temperature, respectively, based on previous reports. The test wavelengths were 195~250 nm.
# Target sequence in this assay (C7FF04 1-392): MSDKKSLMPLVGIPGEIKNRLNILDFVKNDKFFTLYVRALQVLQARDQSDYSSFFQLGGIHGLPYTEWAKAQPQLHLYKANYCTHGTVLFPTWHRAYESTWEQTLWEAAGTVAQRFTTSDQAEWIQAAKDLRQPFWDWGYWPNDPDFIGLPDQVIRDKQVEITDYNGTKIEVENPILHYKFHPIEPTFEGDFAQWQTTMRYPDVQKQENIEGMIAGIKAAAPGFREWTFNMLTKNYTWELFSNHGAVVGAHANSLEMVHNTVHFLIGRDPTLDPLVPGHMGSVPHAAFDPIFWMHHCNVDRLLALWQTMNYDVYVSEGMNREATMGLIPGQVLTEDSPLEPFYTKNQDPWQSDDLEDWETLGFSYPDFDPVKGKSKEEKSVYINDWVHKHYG
# tyrosinase [6] = target: T2, tyrosinase; assay: Three-dimensional fluorescence spectra; set-up: species or system mushroom; conditions: 5w 8.5 μM
# Method: Three-dimensional fluorescence spectra were employed to monitor the effects of compound 5w on the conformation and microenvironment changes in tyrosinase. In the 3D fluorescence spectra of tyrosinase (Figure 5A), two characteristic peaks 1 and 2 appeared, which corresponded to Tyr and Trp residues and polypeptide strand transition, respectively.
# Based on a previous report, the 3D fluorescence spectra of tyrosinase (0.17 mg/mL) and tyrosinase–compound 5w mixture were measured, respectively, at room temperature. The test wavelengths were 200–400 nm.
# Target sequence in this assay (C7FF04 1-392 limits assumed): as the sequence (C7FF04 1-392) above
# tyrosinase [7] = target: T2, tyrosinase; assay: Inhibition kinetics (Lineweaver–Burk plots); assay type: biochemical, mushroom
# Method: To understand the inhibition mechanism of this kind of compound on tyrosinase, the inhibition kinetics of the preferable compound 5w were investigated. […] With the increasing concentrations of 5w, the Y-intercept of corresponding lines increased and the X-intercept decreased, meaning the decrease of Vmax and Km.
# The kinetics studies of 5w were conducted using the above experimental procedure. The absorbance changes in the mixture containing 5w (0, 4, 8, and 16 μM), tyrosinase (66.7 U/mL), and L-DOPA (2, 4, 6, and 8 mM) were recorded, respectively. The data were analyzed using Lineweaver–Burk plots.
# Target sequence in this assay (C7FF04 1-392 limits assumed): as the sequence (C7FF04 1-392) above
# tyrosinase [8] = target: T2, tyrosinase; assay: Fluorescence quenching titration (Stern–Volmer); assay type: binding, mushroom
# Method: Fluorescence quenching, an effective method for monitoring the binding of a compound to its target protein, was operated to examine the binding of compound 5w with tyrosinase.
# For a further understanding of the binding process of compound 5w with tyrosinase, the fluorescence quenching manner was assayed using the Stern–Volmer equation. In the Stern–Volmer plots of compound 5w (Figure 3D), the lines at different temperatures presented a good linear, which illustrated only one quenching manner in their binding process. Although the quenching constant (Ksv) values were slightly proportional to temperature, the quench rate constant (Kq) values at different temperatures were all higher than 2 × 10^10 L mol^−1 S^−1, which is the maximum scattering collision quenching constant (Table 2). […] In addition, the number of binding sites (n) was obtained to be about one, meaning there was only one binding site between compound 5w and tyrosinase (Table 2).
# According to a previous report, the fluorescence quenching titration was run. In total, 1 μL of 5w solution was progressively titrated into 2 mL of tyrosinase (0.17 mg/mL), followed by fluorescence spectra determination (λex = 280 nm) at temperatures of 298, 303, and 308 K, respectively. The quenching parameters were obtained using the Stern–Volmer equation.
# Target sequence in this assay (C7FF04 1-392 limits assumed): as the sequence (C7FF04 1-392) above
# T1 sequence (C7FF04 1-392): as above
smiles,measurement,setting,value
COc1cccc(/C=C2\SC(=O)N(CC(=O)NCCc3c[nH]c4ccccc34)C2=O)c1 [5r],inhibition at 32 µM,Mushroom tyrosinase,2%
"O=c1cc(CO)occ1O [Kojic acid, reference compound]",melanogenesis in B16F10 cells,[1],could inhibit
same,grayscale values of whole embryos,[2]; Image J,decrease in grayscale values
same,"pigmentation of embryo (eyes, yolk sac, notum)",[2],pigmentation decrease
same,tyrosinase activity in zebrafish,[3],could reduce the tyrosinase activity in zebrafish
same,cellular tyrosinase activity,[4],could inhibit
same,effect on cells' viability,B16F10 cells,obvious effects
O=C(CN1C(=O)S/C(=C\c2ccc(F)cc2)C1=O)NCCc1c[nH]c2ccccc12 [5g],inhibition at 32 µM,Mushroom tyrosinase,27.4%
Cc1ccc(/C=C2\SC(=O)N(CC(=O)NCCc3c[nH]c4ccccc34)C2=O)cc1 [5d],inhibition at 32 µM,Mushroom tyrosinase,15.1%
O=C(CN1C(=O)S/C(=C\c2ccccc2C(F)(F)F)C1=O)NCCc1c[nH]c2ccccc12 [5n],inhibition at 32 µM,Mushroom tyrosinase,3.8%
O=C(CN1C(=O)S/C(=C\c2ccccc2)C1=O)NCCc1c[nH]c2ccccc12 [5a],inhibition at 32 µM,Mushroom tyrosinase,14.2%
O=C(CN1C(=O)S/C(=C\c2ccc(Cl)cc2)C1=O)NCCc1c[nH]c2ccccc12 [5j],inhibition at 32 µM,Mushroom tyrosinase,36.6%
N#Cc1ccc(/C=C2\SC(=O)N(CC(=O)NCCc3c[nH]c4ccccc34)C2=O)cc1 [5x],inhibition at 32 µM,Mushroom tyrosinase,24.6%
N#Cc1cccc(/C=C2\SC(=O)N(CC(=O)NCCc3c[nH]c4ccccc34)C2=O)c1 [5w],anti-melanogenesis activity compared with kojic acid,[1],obvious higher
same,melanogenesis in B16F10 cells,[1],could inhibit
same,Random Coil (%),tyrosinase [5]; [Enzyme]: [5w] 1: 1,32.5%
same,α-Helix (%),tyrosinase [5]; [Enzyme]: [5w] 1: 1,8.8%
same,β-Sheet (%),tyrosinase [5]; [Enzyme]: [5w] 1: 1,33.6%
same,β-Turn (%),tyrosinase [5]; [Enzyme]: [5w] 1: 1,19.9%
same,Random Coil (%),tyrosinase [5]; [Enzyme]: [5w] 1: 2,34.5%
same,α-Helix (%),tyrosinase [5]; [Enzyme]: [5w] 1: 2,8.9%
same,β-Sheet (%),tyrosinase [5]; [Enzyme]: [5w] 1: 2,33.1%
same,β-Turn (%),tyrosinase [5]; [Enzyme]: [5w] 1: 2,20.0%
same,Random Coil (%),tyrosinase [5]; [Enzyme]: [5w] 1: 3,35.5%
same,α-Helix (%),tyrosinase [5]; [Enzyme]: [5w] 1: 3,9.0%
same,β-Sheet (%),tyrosinase [5]; [Enzyme]: [5w] 1: 3,32.7%
same,β-Turn (%),tyrosinase [5]; [Enzyme]: [5w] 1: 3,20.1%
same,3D fluorescence characteristic peaks 1 and 2 of tyrosinase,tyrosinase [6],reduced significantly accompanied by a slight shift
same,decrease in grayscale values compared with kojic acid,[2]; Image J,displayed a higher decrease
same,grayscale values of whole embryos,[2]; Image J,decrease in grayscale values
same,"pigmentation of embryo (eyes, yolk sac, notum)",[2],pigmentation decrease
same,anti-tyrosinase activity in zebrafish compared with kojic acid,[3]; concentration of 10 μM,higher anti-tyrosinase activity than kojic acid
same,tyrosinase activity in zebrafish,[3],could reduce the tyrosinase activity in zebrafish
same,cellular anti-tyrosinase activity compared with kojic acid,[4],obvious higher
same,cellular tyrosinase activity,[4],could inhibit
same,IC50,Mushroom tyrosinase,11.2 µM
same,inhibition at 32 µM,Mushroom tyrosinase,> 70%
same,inhibition type,tyrosinase [7]; Lineweaver–Burk plots,mixed-type tyrosinase inhibitor
same,Ki,"tyrosinase [7]; from plots of slope vs. inhibitor concentration, read-out: inhibition constant (Ki)",11.7 µM
same,fluorescence quenching process,tyrosinase [8],static quenching process
same,KSV,tyrosinase [8]; T 298 K,3.77 ×10^4 Lmol^−1
same,Kq,tyrosinase [8]; T 298 K,3.77 ×10^12 Lmol^−1
same,n (number of binding sites),tyrosinase [8]; T 298 K,0.72
same,KSV,tyrosinase [8]; T 303 K,3.84 ×10^4 Lmol^−1
same,Kq,tyrosinase [8]; T 303 K,3.84 ×10^12 Lmol^−1
same,n (number of binding sites),tyrosinase [8]; T 303 K,0.74
same,KSV,tyrosinase [8]; T 308 K,4.47 ×10^4 Lmol^−1
same,Kq,tyrosinase [8]; T 308 K,4.47 ×10^12 Lmol^−1
same,n (number of binding sites),tyrosinase [8]; T 308 K,0.82
same,quench rate constant (Kq),"tyrosinase [8]; at different temperatures (298, 303, 308 K)",higher than 2 × 10^10 L mol^−1 S^−1
same,effect on cells' viability,B16F10 cells,obvious effects
Cc1ccccc1/C=C1\SC(=O)N(CC(=O)NCCc2c[nH]c3ccccc23)C1=O [5b],inhibition at 32 µM,Mushroom tyrosinase,19.3%
O=C(CN1C(=O)S/C(=C\c2cccc([N+](=O)[O-])c2)C1=O)NCCc1c[nH]c2ccccc12 [5y],inhibition at 32 µM,Mushroom tyrosinase,19.8%
COc1ccccc1/C=C1\SC(=O)N(CC(=O)NCCc2c[nH]c3ccccc23)C1=O [5q],inhibition at 32 µM,Mushroom tyrosinase,1%
O=C(CN1C(=O)S/C(=C\c2cccc(C(F)(F)F)c2)C1=O)NCCc1c[nH]c2ccccc12 [5o],inhibition at 32 µM,Mushroom tyrosinase,4.5%
